In patent publication US7635788B2, “Alpha-amino acid derivatives with antiinflammatory activity” (Italfarmaco SpA, priority 2004, dated 2009):

Assays:
[1] = test system: TNFα production by peripheral blood mononucleocytes stimulated with LPS; test: Inhibition of TNFα production by human monocytes stimulated with LPS; assay type: cell-based; details: LPS 10 ng/ml, 24 hours, ELISA
Experimental: The compounds were dissolved in DMSO at a final concentration of 10 mM.
The solutions for the assay were prepared by diluting the mother solutions in RPMI 1640 with the addition of 1% FCS and 0.01% DMSO and were filtered with 0.2 μm filters.
The peripheral blood mononucleocytes were obtained from blood from healthy donors by separation in a Ficoll-Hypaque gradient [C. G. Figdor, et al. Blood, 1982, 60: 46-53]. The cells were sown in 96-well plates, at a concentration of approx. 500,000 cells per well, suspended in RPMI 1640 containing 1% FCS and were incubated at 37° C. in the presence of different concentrations (from 10^−6 to 10^−11M) of the compounds to be investigated. After 1 hour, LPS was added (at a final concentration of 10 ng/ml; obtained from E. coli 055:B5) and the plates were incubated at 37° C. for a further 24 hours. At the end of this period, the supernatants were collected and used for the determination of TNFα content by means of ELISA (DuoSet ELISA kit; R&D Systems, Minneapolis, Minn., USA).
The concentration of TNFα was calculated using a calibration curve and the IC50 values (the concentration which brings about 50% inhibition of the production of the cytokine) were calculated from the curve obtained by plotting the percentage inhibition values for each individual concentration of the compound under investigation.

[2] = test system: human hepatoma cell line Hep-G2; test: Cytotoxicity towards tumour cells in vitro (Cell Titer 96 formazane colorimetric assay); assay type: cell-based; details: 48 h, percentage inhibition of the formation of formazane relative to the control
Experimental: The cytotoxicity of some compounds described in the preceding Examples was evaluated in vitro on human hepatoma cell line Hep-G2, by means of a commercial colorimetric method (Cell Titer 96® Aque ous One Solution Cell Proliferation Assay—Promega); the method determines the number of viable cells on the basis of their capacity to metabolise a tetrazolium salt producing formazane. The quantity of formazane produced is proportional to the number of viable cells.
The Hep-G2 cells are distributed 96 well microplates at a density of 4×10^4 cells/well (100 μl), in M199 medium containing 10% foetal bovine serum and supplements (complete medium).
After 24 hours' incubation (37° C., 5% CO2, 90% humidity), the cells are washed once and the medium is replenished with 200 μl of complete medium containing the substances to be tested at the final concentration of 10^−5, 10^−6 and 10^−7M. The test is performed in triplicate.
The plates are incubated for a further 48 h, at the end of which 100 μl of medium are removed and 20 μl/well of staining solution are added in accordance with the supplier's instructions. Optical density (λ=490 nm) is read after 1 hour's incubation at 37° C. using a plate reader (Victor2—Wallac Perkin Elmer).

In the case of `O=C(NO)c1ccc(NC(=O)[C@H](Cc2ccc(-c3ccccc3)cc2)NC(=O)c2ccc3ccccc3c2)cc1` [Example 2y, N-[1(S)-(4-hydroxycarbamoyl-phenylcarbamoyl)-2-(biphenyl-4-yl)-ethyl]-amide of naphthalene-2-carboxylic acid], the IC50 [1] is reported as 21.3 nM, the “Cytotoxicity at 10^−5 M” value ([2]; 10^−5 M) is reported as 73.7% and the “Cytotoxicity at 10^−6 M” value ([2]; 10^−6 M) is reported as 20.4%.
